From article PMC11921344, “Antimicrobial peptide DiPGLa-H exhibits the most outstanding anti-infective activity among the PGLa variants based on a systematic comparison” (Applied and Environmental Microbiology, 2025)
Where two headings read alike, the source gives them in different places. Where no end group is shown, it is not given here.

Columns and labels:
P. aeruginosa ATCC27853 = assay type: cell-based, Pseudomonas aeruginosa; conditions: for MBC P. aeruginosa ATCC27853: ATCC27853, 4 h; for MIC P. aeruginosa ATCC27853: ATCC27853, 24 h
Protocol: (§1) The antibacterial activity was evaluated using a standard MIC and MBC assay according to the National Committee for Clinical Laboratory Standards (NCCLS). MIC, MBC assay, and time-kill curves for the optimal peptide are provided in the Supplementary Materials.
(§2) Antimicrobial Activity Assays. The antibacterial activity of the peptides was determined using a method designed from the National Committee for Clinical Laboratory Standards (NCCLS) in the United States. All the strains used in the experiment are preserved in the laboratory. Briefly, log phase bacterial cells were diluted in MHB to a final concentration of 0.5-1x10^5 CFU/mL. Subsequently, 50μL of different concentrations of polypeptides were incubated with 50 μL of bacterial solution in sterile 96-well plates. In the minimum inhibitory concentration (MIC) assay, the plate was incubated at 37°C for 24 h, and the minimum inhibitory concentration (MIC) was determined by the absorbance at 492 nm of the microplate reader, and the minimum inhibitory concentration (MIC) inhibited 95% of bacteria grow. Determination of minimum bactericidal concentration: the plate was incubated at 37°C for 4 hours, 50 μL of the mixture was taken out of each well, diluted with an appropriate amount of PBS, smeared on the agar plate, and cultured overnight. Colonies were counted and the initial CFU/well was retrospectively calculated the following day. The lowest concentration of peptide that kills 99.9% of bacterial cells is the minimum bactericidal concentration (µM), Each test was replicated at least 3 times.

Gram-negative bacteria = assay: Geometric mean MIC and therapeutic index, Gram-negative; assay type: cell-based; conditions: geometric mean of the peptide MICs against Gram-negative strains
Protocol: as §1, §2

S. aureus ATCC29213 = assay type: cell-based, Staphylococcus aureus; conditions: for MBC S. aureus ATCC29213: ATCC29213, 4 h; for MIC S. aureus ATCC29213: ATCC29213, 24 h
Protocol: as §1, §2

A. baumannii ATCC19606 = assay type: cell-based, Acinetobacter baumannii; conditions: for MBC A. baumannii ATCC19606: ATCC19606, 4 h; for MIC A. baumannii ATCC19606: ATCC19606, 24 h
Protocol: as §1, §2

all tested bacteria = assay: Geometric mean MIC and therapeutic index, all strains; assay type: cell-based; conditions: for reduced antibacterial efficacy compared with DiPGLa-H: from MICs of Table 2; for GMMIC All: geometric mean of the peptide MICs against all strains
Protocol: as §1, §2

S. aureus Mu50 = assay type: cell-based, Staphylococcus aureus MRSA; conditions: for MBC S. aureus Mu50: Mu50, 4 h; for MIC S. aureus Mu50: Mu50, 24 h
Protocol: as §1, §2

E. coli ATCC25922 = assay type: cell-based, Escherichia coli; conditions: for MBC E. coli ATCC25922: ATCC25922, 4 h; for MIC E. coli ATCC25922: ATCC25922, 24 h
Protocol: as §1
as §2, with “[…],” for “the plate was incubated at 37°C for 24 h,”

Gram-positive bacteria = assay: Geometric mean MIC and therapeutic index, Gram-positive; assay type: cell-based; conditions: geometric mean of the peptide MICs against Gram-positive strains
Protocol: as §1, §2

S. aureus = conditions: cited from earlier work
Protocol: (§3) PGLa, an amphibian 21-residue cationic AMP, with a net charge of +4, was found in the skin of the toad Xenopus laevis ([6]). The minimum inhibitory concentration (MIC) of PGLa against Escherichia coli 25922 and S. aureus 25923 were 10–50 μg/mL and 50–100 μg/mL, respectively ([6]). […] The rep ...

E. coli = conditions: cited from earlier work
Protocol: as §3

Helicobacter pylori = conditions: cited from earlier work
Description: (§4) To date, there is a lack of systematic comparative study on the bacteriostatic activity and biosafety of PGLa and its variants, which precludes the determination of the variant with the highest potential for application. It has been more than 30 years since the discovery of PGLa in 1983 to the recent discovery of new PGLa-derived peptides.

[1] = test system: Acinetobacter nosocomial Ab113; conditions: cited from earlier work
Description: as §4

MRSA = conditions: cited from earlier work
Description: as §4

Pseudomonas aeruginosa = conditions: cited from earlier work
Description: as §4

S. aureus ATCC 25923 = conditions: cited from earlier work
Protocol: as §3

E. coli ATCC 25922 = conditions: cited from earlier work
Protocol: as §3

E. coli K88 = assay type: cell-based, Escherichia coli
Protocol: as §1
as §2, with “The lowest concentration of peptide that kills 99.9% of bacterial cells is the minimum bactericidal concentration (µM), Each test was replicated at least 3 times.” left out

[2] = test system: E. coli K88 outer membrane; assay: Outer membrane integrity assay (NPN uptake); assay type: cell-based, Escherichia coli; conditions: 4 µM peptide; relative to 10 µg/mL polymyxin B = 100%
Protocol: (§5) The outer and inner membrane integrity of bacterial cells treated with peptides was assessed using NPN and PI staining, respectively. Full details are provided in the Supplementary Materials.
Membrane permeabilization. Outer membrane integrity assay. The fluorescent probe NPN (Sigma-Aldrich, catalog no. 104043, ≥98%) was used to assess the outer membrane integrity of DiPGLa-H or mucin-treated E. coli K88. Briefly, log-medium E. coli K88 cells (OD600 = 0.2) were incubated with NPN (10 μM) in 5 mM HEPES buffer (pH 7.4, containing 5 mM glucose) for 30 min, and background fluorescence was recorded for subtraction. (excitation λ = 350 nm, emission λ = 420 nm) using a microplate reader (Varioskan Flash; Thermo, America). Subsequently, 100 μL of cell suspension was mixed with an equal volume of peptide solutions ranging in concentration from 4 to 64 μM in a sterile 96-well black plate. Fluorescence was recorded over time until no further increase in fluorescence was detected. Each test was performed independently, in duplicate, with three biological replicates, and results were converted to percent NPN uptake using the equation. NPN uptake (%) = (Fobs – Fbuffer)/ (Fpositive – Fbuffer) ×100%.
where Fobs is the observed fluorescence at a given peptide concentration, Fbuffer is the fluorescence of the buffer, and Fpositive is the fluorescence of NPN with microbial cells upon addition of 10 μg/mL polymyxin B (Sigma), which was used as a positive control because of its strong outer membrane-permeabilizing property. Untreated cell suspension served as the negative control.

[3] = test system: E. coli K88 inner membrane; assay: Inner membrane integrity assay (PI); assay type: cell-based, Escherichia coli; conditions: 4 µM, 16 µM and 64 µM peptide
Protocol: as §5
Inner membrane integrity assay. E. coli K88 cells were washed and resuspended in 0.01 mol l−1 of PBS (pH 7.4) to obtain an OD600 of 0.5, followed by the addition of 10 nmol l−1 of PI (Thermo Fisher Scientific, catalogue no. P1304MP) in the presence of […]. After incubation for 30 min, fluorescence was measured with the excitation wavelength at 535 nm and emission wavelength at 615 nm.

[4] = first of two independent studies
[5] = second of two independent studies

Row | Substance | MBC P. aeruginosa ATCC27853 (P. aeruginosa ATCC27853) [µM] | MIC P. aeruginosa ATCC27853 (P. aeruginosa ATCC27853) [µM] | GMMIC Gram-negative (Gram-negative bacteria) [µM] | MBC S. aureus ATCC29213 (S. aureus ATCC29213) [µM] | MIC S. aureus ATCC29213 (S. aureus ATCC29213) [µM] | MBC A. baumannii ATCC19606 (A. baumannii ATCC19606) [µM] | MIC A. baumannii ATCC19606 (A. baumannii ATCC19606) [µM] | reduced antibacterial efficacy compared with DiPGLa-H (all tested bacteria) | GMMIC All (all tested bacteria) [µM] | MBC S. aureus Mu50 (S. aureus Mu50) | MIC S. aureus Mu50 (S. aureus Mu50) | MBC E. coli ATCC25922 (E. coli ATCC25922) [µM] | MIC E. coli ATCC25922 (E. coli ATCC25922) [µM] | GMMIC Gram-positive (Gram-positive bacteria) [µM] | further results
1 | KIAKGALKALKIAKVALKAL-NH2 (C-terminus assumed) [kiadin-2] | 8 | 4 | 4.76 | 32 | 32 | 4 | 4 | 2–8 times | 8.98 | 32 (32) µM | 32 (32) µM | 16 | 8 | 32 | –
2 | GMASKAGSVLGKVAKVALKAAL-NH2 (C-terminus assumed) [PGLa-AM1] | > 64 | 64 | 53.82 | > 64 | > 64 | 32 | 32 | – | 57.02 | >64 (>64) µM | >64 (>64) µM | > 64 | > 64 | 64 | MIC S. aureus (S. aureus): 25 µM; MIC E. coli (E. coli): 12.5 µM; MIC Helicobacter pylori (Helicobacter pylori): 1 µg/mL; MIC Acinetobacter nosocomial Ab113 [1]: 128 µg/mL
3 | KIAKVALKALKIAKGALKAL-NH2 (C-terminus assumed) [kiadin-1] | 16 | 8 | 11.31 | 16 | 16 | 4 | 4 | 2–8 times | 14.25 | 32 (32) µM | 32 (32) µM | 64 | 32 | 22.63 | MIC MRSA (MRSA; [4]): 3 µM; MIC MRSA (MRSA; [5]): 16 µg/mL; MIC Pseudomonas aeruginosa ATCC 25922 (Pseudomonas aeruginosa; [4]): 6 µM; MIC Pseudomonas aeruginosa ATCC 25922 (Pseudomonas aeruginosa; [5]): > 32 µg/mL
4 | GMASKAGAIAGKIAKVALKAL-NH2 (C-terminus assumed) [PGLa] | 64 | 64 | 38.05 | 64 | 64 | 16 | 16 | – | 45.25 | >64 (>64) µM | >64 (>64) µM | > 64 | > 64 | 64 | MIC S. aureus 25923 (S. aureus ATCC 25923): 50 to 100 µg/mL; MIC E. coli 25922 (E. coli ATCC 25922): 10 to 50 µg/mL; MIC E. coli K88 (E. coli K88; lowest concentration inhibiting 95% of growth, MHB, 0.5-1x10^5 CFU/mL, 37°C 24 h, absorbance 492 nm, three independent experiments): 32 µM; MBC E. coli K88 (E. coli K88; lowest concentration killing >99.9% of cells, 37°C 4 h, plating, colony count, three independent trials): 64 µM
5 | KIAKVALKAL-NH2 (C-terminus assumed) [PGLa-H] | > 128 | > 128 | 128 | > 128 | > 128 | > 128 | > 128 | – | 128 | >128 (>128) µM | >128 (>128) µM | > 128 | > 128 | 128 | MIC S. aureus ATCC 25923 (S. aureus ATCC 25923): 8.7 µg/mL; MIC E. coli ATCC25922 (E. coli ATCC 25922): 23.6 µg/mL; outer membrane permeability (NPN uptake) [2]: failed to exhibit any discernible outer membrane permeability; PI-DNA fluorescence intensity [3]: relatively constant PI-DNA fluorescence intensity
